Results reported in ChEMBL document CHEMBL1156829 (Proc Natl Acad Sci U S A, 2008).

What was measured:
Plasmodium falciparum [1] = test: NOVARTIS: Inhibition of Plasmodium falciparum W2 (drug-resistant) proliferation in erythrocyte-based infection assay; type: functional, organism-based; conditions: Plasmodium falciparum, W2; read-out: EC50
[2] = NOVARTIS: Cytotoxicity against human hepatocellular carcinoma cell line (Huh7); type: toxicity, cell-based, Huh-7; conditions: Huh7 cells (hepatocellular carcinoma cell line)
Plasmodium falciparum [3] = test: NOVARTIS: Inhibition of Plasmodium falciparum 3D7 (drug-susceptible) proliferation in erythrocyte-based infection assay; type: functional, organism-based; conditions: Plasmodium falciparum, 3D7

`CCN(CC)CCNc1nc(/C=C/c2ccc(Cl)cc2)nc2cc3ccccc3cc12` showed an EC50 (Plasmodium falciparum [1]) of 90.1 nM, a CC50 [2] of 5930 nM and an EC50 (Plasmodium falciparum [3]) of 124 nM.

Work on `Cc1c2ccccc2cc(Cc2ccccc2)[n+]1C` yielded an EC50 (Plasmodium falciparum [1]) of 369 nM, a CC50 [2] of over 100000 nM and an EC50 (Plasmodium falciparum [3]) of 488 nM.

`CCCOC(=O)C1=C(C)NC2=C(C(=O)CC(c3ccc(OC)c(OC)c3)C2)C1c1ccc([N+](=O)[O-])cc1` (stereo not given) gave an EC50 (Plasmodium falciparum [1]) of 20.5 nM, a CC50 [2] of over 100000 nM and an EC50 (Plasmodium falciparum [3]) of 25.9 nM.

For `N#CC(=Cc1ccc(Sc2ccccc2)o1)c1nc2ccccc2[nH]1`, the EC50 (Plasmodium falciparum [1]) was 501 nM, the CC50 [2] was over 100000 nM and the EC50 (Plasmodium falciparum [3]) was 1050 nM.

`COCCN(C(C)C(=O)NC(CN1CCCC1)c1ccccc1)S(=O)(=O)c1c(C)noc1C` (stereo not given) showed an EC50 (Plasmodium falciparum [1]) of 406 nM, a CC50 [2] of over 11900 nM and an EC50 (Plasmodium falciparum [3]) of 964 nM.

For `C=CC1CN2CCC1CC2C(O)c1ccnc2ccccc12` (stereo not given), the EC50 (Plasmodium falciparum [1]) was 84.1 nM, the CC50 [2] was over 100000 nM and the EC50 (Plasmodium falciparum [3]) was 43.5 nM.

`CC[n+]1c(C=C2C=C(C)CC(C)C2)sc2ccccc21` (stereo not given) gave an EC50 (Plasmodium falciparum [1]) of 300 nM, a CC50 [2] of over 100000 nM and an EC50 (Plasmodium falciparum [3]) of 326 nM.

For `O=C(NC(c1ccccc1)c1ccc2cccnc2c1O)c1ccccc1` (stereo not given), the EC50 (Plasmodium falciparum [1]) was 376 nM, the CC50 [2] was over 100000 nM and the EC50 (Plasmodium falciparum [3]) was 533 nM.

For `OC(Cn1cnc(-c2ccccc2)c1-c1ccccc1)Cn1c2ccc(Br)cc2c2cc(Br)ccc21` (stereo not given), the EC50 (Plasmodium falciparum [1]) was 53.2 nM, the CC50 [2] was over 100000 nM and the EC50 (Plasmodium falciparum [3]) was 952 nM.

`COc1cccc2c(C)nc(N=C(N)N)nc12` gave an EC50 (Plasmodium falciparum [1]) of 688 nM, a CC50 [2] of 53500 nM and an EC50 (Plasmodium falciparum [3]) of 291 nM.

Work on `O=[N+]([O-])c1cc(C(F)(F)F)ccc1N1CCCN(C(=S)Nc2ccccc2)CC1` yielded an EC50 (Plasmodium falciparum [1]) of 102 nM, a CC50 [2] of over 100000 nM and an EC50 (Plasmodium falciparum [3]) of 87.8 nM.

`Cc1cccc(-c2nc3cc(NC(=O)c4ccc([N+](=O)[O-])o4)ccc3o2)c1` showed an EC50 (Plasmodium falciparum [1]) of over 12500 nM, a CC50 [2] of over 100000 nM and an EC50 (Plasmodium falciparum [3]) of 1720 nM.

In the case of `O=C(C1Cc2ccccc2CN1S(=O)(=O)c1ccc(F)cc1)N1CCOCC1` (stereo not given), the EC50 (Plasmodium falciparum [1]) is reported as 641 nM, the CC50 [2] is reported as over 10000 nM and the EC50 (Plasmodium falciparum [3]) is reported as over 1340 nM.

`CCN(CC)CCCC(C)Nc1ccnc2ccc(-c3ccccc3)cc12` (stereo not given) gave an EC50 (Plasmodium falciparum [1]) of 359 nM, a CC50 [2] of over 10000 nM and an EC50 (Plasmodium falciparum [3]) of 264 nM.

Compound `COc1cc2nc(NCC3CCCO3)n3nc(-c4ccccc4)nc3c2cc1OC` (stereo not given) has an EC50 (Plasmodium falciparum [1]) of 662 nM, a CC50 [2] of over 100000 nM and an EC50 (Plasmodium falciparum [3]) of 293 nM.

With `C=CCc1cc(-c2cc(CC=C)c(O)c(CN(CC)CC)c2)cc(CN(CC)CC)c1O` the EC50 (Plasmodium falciparum [1]) was 61.9 nM, the CC50 [2] was over 10000 nM and the EC50 (Plasmodium falciparum [3]) was 273 nM.

`O=C(NCCCCCCCCNC(=O)Nc1ccc(C2=NCCN2)cc1)Nc1ccc(C2=NCCN2)cc1` showed an EC50 (Plasmodium falciparum [1]) of 45.9 nM, a CC50 [2] of over 10000 nM and an EC50 (Plasmodium falciparum [3]) of 85.4 nM.

For `CCCCc1ccc(NC(C)=O)cc1`, the EC50 (Plasmodium falciparum [1]) was 334 nM, the CC50 [2] was 4210 nM and the EC50 (Plasmodium falciparum [3]) was 214 nM.

Compound `O=C(NNS(=O)(=O)c1ccccc1[N+](=O)[O-])c1ccccc1` has an EC50 (Plasmodium falciparum [1]) of over 833 nM, a CC50 [2] of over 10000 nM and an EC50 (Plasmodium falciparum [3]) of over 1250 nM.

`O=C(Nc1ccc(F)c(Cl)c1)c1c2c(nc3ccccc13)CCN(Cc1ccccc1)C2` gave an EC50 (Plasmodium falciparum [1]) of 96.7 nM, a CC50 [2] of over 100000 nM and an EC50 (Plasmodium falciparum [3]) of 799 nM.

Compound `CCOc1cc(C2CC(=O)NC3=C2C(=O)CC(C)(C)C3)ccc1OC(C)C` (stereo not given) has an EC50 (Plasmodium falciparum [1]) of 136 nM, a CC50 [2] of over 100000 nM and an EC50 (Plasmodium falciparum [3]) of 284 nM.

Work on `CC(C)CCNCC(O)Cn1c2ccc(Cl)cc2c2cc(Cl)ccc21` (stereo not given) yielded an EC50 (Plasmodium falciparum [1]) of 96.6 nM, a CC50 [2] of 20600 nM and an EC50 (Plasmodium falciparum [3]) of 192 nM.

`Cc1cc(N2CCN(Cc3ccccc3)CC2)n2c(nc3ccccc32)c1C#N` gave an EC50 (Plasmodium falciparum [1]) of 832 nM, a CC50 [2] of over 100000 nM and an EC50 (Plasmodium falciparum [3]) of 323 nM.

For `Cc1ccc(Nc2nc3nonc3nc2N(C)C)cc1Cl`, the EC50 (Plasmodium falciparum [1]) was 1610 nM, the CC50 [2] was over 10000 nM and the EC50 (Plasmodium falciparum [3]) was over 1460 nM.

Compound `COc1cc(C=NNc2nc3ccccc3[nH]2)cc(OC)c1OC` has an EC50 (Plasmodium falciparum [1]) of 339 nM, a CC50 [2] of 87500 nM and an EC50 (Plasmodium falciparum [3]) of 176 nM.

Work on `COc1ccccc1N1CCN(Cc2cc(C(C)C)c(C)cc2O)CC1` yielded an EC50 (Plasmodium falciparum [1]) of 85 nM, a CC50 [2] of 77400 nM and an EC50 (Plasmodium falciparum [3]) of 623 nM.

For `COc1cc(C(=O)/C=C/Nc2ccc(N(C)C)cc2)cc(OC)c1OC`, the EC50 (Plasmodium falciparum [1]) was over 1250 nM, the CC50 [2] was over 10000 nM and the EC50 (Plasmodium falciparum [3]) was over 1200 nM.

`OC1CCCCC1C1(NC(=S)Nc2ccccc2)CCCCC1` (stereo not given) gave an EC50 (Plasmodium falciparum [1]) of 153 nM, a CC50 [2] of 22800 nM and an EC50 (Plasmodium falciparum [3]) of 211 nM.

Compound `O=C(c1ccccc1)C1NC1c1ccc(Br)cc1` (stereo not given) has an EC50 (Plasmodium falciparum [1]) of 1120 nM, a CC50 [2] of over 100000 nM and an EC50 (Plasmodium falciparum [3]) of 989 nM.

Compound `Cn1c(=O)n(Cc2ccccc2)c(=O)c2c1nc(SCC(=O)Nc1ccccc1)n2Cc1ccccc1` has an EC50 (Plasmodium falciparum [1]) of 362 nM, a CC50 [2] of over 100000 nM and an EC50 (Plasmodium falciparum [3]) of 1850 nM.

`O=C(CNC(=O)c1ccccc1)Oc1ccc(Cl)cc1` gave an EC50 (Plasmodium falciparum [1]) of over 1250 nM, a CC50 [2] of over 10000 nM and an EC50 (Plasmodium falciparum [3]) of 537 nM.

`CC(C)CNC(=O)c1cnc(NCCCn2ccnc2)nc1Nc1ccccc1` gave an EC50 (Plasmodium falciparum [1]) of 639 nM, a CC50 [2] of over 10000 nM and an EC50 (Plasmodium falciparum [3]) of 633 nM.

For `CCc1ccc(C(C)=NNc2nc(O)cc(-c3ccccc3)n2)cc1`, the EC50 (Plasmodium falciparum [1]) was over 1460 nM, the CC50 [2] was over 10000 nM and the EC50 (Plasmodium falciparum [3]) was 1780 nM.

In the case of `CCOc1ccc2nc(C)cc(Nc3ccc(OCc4ccccc4Cl)cc3)c2c1`, the EC50 (Plasmodium falciparum [1]) is reported as 357 nM, the CC50 [2] is reported as 5840 nM and the EC50 (Plasmodium falciparum [3]) is reported as 142 nM.

Work on `Cc1ccc(-c2cc(C(F)(F)F)n3nc(C(=O)Nc4cccc(Cl)c4Cl)cc3n2)cc1` yielded an EC50 (Plasmodium falciparum [1]) of over 321 nM, a CC50 [2] of over 10000 nM and an EC50 (Plasmodium falciparum [3]) of over 1250 nM.
